The structures appear in SMILES notation. Activity calls are given as the source filed them. The calls are words filed in the database; no cut-off is given here.

The target of series [1] is Delta-type opioid receptor (Rattus norvegicus, UniProt P33533). Description: Displacement of [3H]DPDPE from delta opioid receptor in rat membranes after 120 mins by scintillation counting analysis. Format: cell membranes. In general terms: Displacement assays read how much labelled ligand stays bound in the presence of the test substance.
Sequence of Delta-type opioid receptor (P33533 whole entry): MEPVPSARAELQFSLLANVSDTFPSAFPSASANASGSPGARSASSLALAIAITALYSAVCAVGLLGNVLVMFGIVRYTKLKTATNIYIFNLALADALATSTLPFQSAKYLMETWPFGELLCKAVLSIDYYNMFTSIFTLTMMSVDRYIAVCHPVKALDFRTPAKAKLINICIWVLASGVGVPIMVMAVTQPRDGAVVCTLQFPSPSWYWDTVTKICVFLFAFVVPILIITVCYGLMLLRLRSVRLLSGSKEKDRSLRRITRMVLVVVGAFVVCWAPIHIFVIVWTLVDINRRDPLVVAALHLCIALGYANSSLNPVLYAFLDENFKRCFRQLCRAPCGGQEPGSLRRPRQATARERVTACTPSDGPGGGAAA
Series [2] in a line: Selectivity ratio of Ki for displacement of [3H]DTG from sigma2 receptor in rat liver membranes to Ki for displacement of (+)-[3H]pentazocine from sigma 1 receptor in guinea pig brain cortex membranes. Format: cell membranes.
Series [3] deals with T1, Cytochrome P450 1A2 (Homo sapiens, UniProt P05177).
T1 sequence (P05177 whole entry): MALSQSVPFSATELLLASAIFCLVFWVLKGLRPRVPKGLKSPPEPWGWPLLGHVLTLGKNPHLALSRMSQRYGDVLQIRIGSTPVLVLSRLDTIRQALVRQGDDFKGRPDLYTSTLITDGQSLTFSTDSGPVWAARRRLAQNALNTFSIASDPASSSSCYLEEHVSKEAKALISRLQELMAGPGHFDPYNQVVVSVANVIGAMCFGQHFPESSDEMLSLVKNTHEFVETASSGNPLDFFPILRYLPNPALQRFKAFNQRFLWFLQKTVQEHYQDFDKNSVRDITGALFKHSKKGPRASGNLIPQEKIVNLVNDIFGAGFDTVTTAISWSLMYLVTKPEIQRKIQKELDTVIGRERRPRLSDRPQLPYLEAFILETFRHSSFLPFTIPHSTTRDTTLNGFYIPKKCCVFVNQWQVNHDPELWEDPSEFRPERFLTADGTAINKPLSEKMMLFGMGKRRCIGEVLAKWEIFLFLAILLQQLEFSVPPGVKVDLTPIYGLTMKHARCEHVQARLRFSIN
Nature of the series: Inhibition of recombinant human CYP1A2 at 1 uM by fluorescence assay. Format: ADME. As to conditions: recombinant enzyme.

The subject of series [4] is HepG2. Description: Cytotoxicity against human HepG2 cells at 1 to 100 uM incubated for 20 hrs under serum free condition by MTT assay. Format: cell-based. As to conditions: hepg2, 20 h.
In series [5] the target is Sodium-dependent noradrenaline transporter (Homo sapiens) (UniProt P23975). Nature of the series: Binding affinity to noradrenaline transporter (unknown origin) at 1 uM.
Sequence of Sodium-dependent noradrenaline transporter (Homo sapiens) (P23975 whole entry): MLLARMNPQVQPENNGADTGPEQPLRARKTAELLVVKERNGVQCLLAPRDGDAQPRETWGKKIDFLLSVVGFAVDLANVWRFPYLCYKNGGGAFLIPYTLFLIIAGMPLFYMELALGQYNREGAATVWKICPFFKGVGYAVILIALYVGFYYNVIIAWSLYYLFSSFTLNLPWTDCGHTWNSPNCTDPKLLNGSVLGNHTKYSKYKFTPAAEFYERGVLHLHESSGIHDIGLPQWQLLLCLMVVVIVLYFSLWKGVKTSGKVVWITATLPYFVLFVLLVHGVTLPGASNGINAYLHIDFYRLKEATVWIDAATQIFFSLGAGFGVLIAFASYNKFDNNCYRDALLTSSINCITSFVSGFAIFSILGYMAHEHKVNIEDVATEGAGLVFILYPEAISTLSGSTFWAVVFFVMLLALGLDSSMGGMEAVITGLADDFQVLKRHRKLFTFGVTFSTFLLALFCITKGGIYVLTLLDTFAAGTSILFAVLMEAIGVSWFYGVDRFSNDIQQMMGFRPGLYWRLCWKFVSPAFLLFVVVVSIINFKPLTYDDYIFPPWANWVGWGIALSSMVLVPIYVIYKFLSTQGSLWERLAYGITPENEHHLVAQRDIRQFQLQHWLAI
The target of series [6] is Kappa-type opioid receptor (Cavia porcellus, UniProt P41144). Description: Displacement of [3H]U69,593 from kappa opioid receptor in guinea pig brain membrane after 120 mins by scintillation counting analysis. Format: cell membranes.
Sequence of Kappa-type opioid receptor (P41144 whole entry): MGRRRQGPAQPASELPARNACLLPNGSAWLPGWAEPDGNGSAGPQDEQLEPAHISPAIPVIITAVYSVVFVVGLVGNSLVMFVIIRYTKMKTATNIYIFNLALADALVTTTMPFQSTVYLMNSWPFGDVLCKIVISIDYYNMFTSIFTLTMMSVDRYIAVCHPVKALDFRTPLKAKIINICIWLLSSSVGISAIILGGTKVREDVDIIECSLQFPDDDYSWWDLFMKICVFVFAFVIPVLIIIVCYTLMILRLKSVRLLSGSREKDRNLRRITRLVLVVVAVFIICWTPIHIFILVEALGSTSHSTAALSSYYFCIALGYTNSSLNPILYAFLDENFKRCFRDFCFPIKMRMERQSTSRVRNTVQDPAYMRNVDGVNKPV
Series [7] deals with CYP2D6 (Homo sapiens, UniProt P10635). Description: Inhibition of recombinant human CYP2D6 at 1 uM by fluorescence assay relative to control. Format: ADME.
Sequence of CYP2D6 (P10635 whole entry): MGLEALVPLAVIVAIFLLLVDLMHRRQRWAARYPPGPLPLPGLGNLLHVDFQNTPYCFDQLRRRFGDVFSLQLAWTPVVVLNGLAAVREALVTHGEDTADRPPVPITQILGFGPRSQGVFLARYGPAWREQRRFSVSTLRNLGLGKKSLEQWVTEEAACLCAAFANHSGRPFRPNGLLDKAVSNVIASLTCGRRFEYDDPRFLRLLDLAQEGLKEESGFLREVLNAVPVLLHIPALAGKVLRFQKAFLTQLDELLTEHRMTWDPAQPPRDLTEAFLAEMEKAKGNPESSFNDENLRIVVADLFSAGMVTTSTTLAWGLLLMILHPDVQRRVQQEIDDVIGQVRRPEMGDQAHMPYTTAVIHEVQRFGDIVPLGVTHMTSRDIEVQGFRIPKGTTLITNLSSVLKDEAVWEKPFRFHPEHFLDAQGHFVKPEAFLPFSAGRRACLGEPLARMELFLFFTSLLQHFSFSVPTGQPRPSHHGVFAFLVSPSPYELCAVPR
A short description of series [8]: Metabolic stability in human liver microsomes assessed as parent compound remaining at 1 uM in the presence of NADPH regenerating system after 60 mins by UPLC/MS analysis. As to conditions: read-out: Stability. Format: ADME, Microsome. On the technique in general: Liver microsomes are vesicles of endoplasmic reticulum, rich in cytochrome P450 enzymes.
In series [9] the target is Mu-type opioid receptor (Cavia porcellus, UniProt P97266). Description: Displacement of [3H]DAMGO from mu opioid receptor in guinea pig brain membranes after 120 mins by scintillation counting analysis. The series is classed as cell membranes.
Sequence of Mu-type opioid receptor (Cavia porcellus, UniProt P97266) (P97266 whole entry): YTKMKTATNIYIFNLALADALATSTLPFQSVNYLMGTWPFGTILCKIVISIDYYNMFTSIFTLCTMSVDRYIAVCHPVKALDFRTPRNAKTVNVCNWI
Series [10] addresses Mu-type opioid receptor (Homo sapiens, UniProt P35372). Nature of the series: Binding affinity to human mu opioid receptor by cell based assay.
The target in series [11] is Sodium-dependent serotonin transporter (Homo sapiens) (UniProt P31645). Description: Binding affinity to serotonin transporter (unknown origin) at 1 uM.
Sequence of Sodium-dependent serotonin transporter (Homo sapiens) (P31645 whole entry, looked up): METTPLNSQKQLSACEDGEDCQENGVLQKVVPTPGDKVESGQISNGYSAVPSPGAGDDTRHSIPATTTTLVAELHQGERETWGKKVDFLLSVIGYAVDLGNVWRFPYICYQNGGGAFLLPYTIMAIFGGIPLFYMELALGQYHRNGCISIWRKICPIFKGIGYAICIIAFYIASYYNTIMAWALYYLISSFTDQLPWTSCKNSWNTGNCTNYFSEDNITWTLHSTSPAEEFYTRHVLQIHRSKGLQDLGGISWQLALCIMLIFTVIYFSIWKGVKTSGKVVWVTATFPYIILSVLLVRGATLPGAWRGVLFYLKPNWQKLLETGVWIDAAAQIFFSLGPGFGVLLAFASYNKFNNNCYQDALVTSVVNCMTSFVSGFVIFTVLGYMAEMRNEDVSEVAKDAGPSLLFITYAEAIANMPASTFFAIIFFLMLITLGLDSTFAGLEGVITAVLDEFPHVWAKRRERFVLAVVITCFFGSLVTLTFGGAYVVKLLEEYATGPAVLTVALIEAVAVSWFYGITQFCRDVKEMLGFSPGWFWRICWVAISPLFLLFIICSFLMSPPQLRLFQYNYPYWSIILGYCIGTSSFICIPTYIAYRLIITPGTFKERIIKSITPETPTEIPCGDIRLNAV
Series [12] addresses Sigma non-opioid intracellular receptor 1 (Homo sapiens, UniProt Q99720). Nature of the series: Displacement of [3H](+)-pentazocine from sigma 1 receptor in human RPMI8226 cell membranes incubated for 2 hrs under shaking by scintillation counting analysis.
The species named for series [13] is Sus scrofa. Nature of the series: Displacement of [3H]-(+)-MK-801 from PCP binding site of NMDA receptor in pig brain cortex membranes up to 1 uM after 120 mins by scintillation counting analysis. The series is classed as cell membranes.
Series [14] concerns the target T2, Alpha-1A adrenergic receptor (Homo sapiens) (UniProt P35348).
T2 sequence (whole entry): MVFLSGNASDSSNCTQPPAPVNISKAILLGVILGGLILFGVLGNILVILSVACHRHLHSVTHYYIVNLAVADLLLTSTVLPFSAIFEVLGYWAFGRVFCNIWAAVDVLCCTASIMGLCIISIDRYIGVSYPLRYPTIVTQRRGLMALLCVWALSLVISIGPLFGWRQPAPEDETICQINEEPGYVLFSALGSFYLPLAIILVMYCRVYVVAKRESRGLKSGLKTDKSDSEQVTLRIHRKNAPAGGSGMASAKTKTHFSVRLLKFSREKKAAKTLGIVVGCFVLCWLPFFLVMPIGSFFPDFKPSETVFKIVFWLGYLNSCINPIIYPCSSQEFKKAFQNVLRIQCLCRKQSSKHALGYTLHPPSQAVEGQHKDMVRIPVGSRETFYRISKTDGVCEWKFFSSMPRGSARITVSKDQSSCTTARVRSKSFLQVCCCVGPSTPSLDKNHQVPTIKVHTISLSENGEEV
Description: Binding affinity to alpha 1a adrenergic receptor (unknown origin) at 1 uM relative to control.

For series [15], the target named is Cytochrome P450 2C19 (Homo sapiens, UniProt P33261). Nature of the series: Inhibition of recombinant human CYP2C19 at 1 uM by fluorescence assay. The series is classed as ADME. As to conditions: recombinant enzyme.
In series [16] the target is T3, Sigma intracellular receptor 2 (Rattus norvegicus, UniProt Q5U3Y7).
T3 sequence (Q5U3Y7 whole entry): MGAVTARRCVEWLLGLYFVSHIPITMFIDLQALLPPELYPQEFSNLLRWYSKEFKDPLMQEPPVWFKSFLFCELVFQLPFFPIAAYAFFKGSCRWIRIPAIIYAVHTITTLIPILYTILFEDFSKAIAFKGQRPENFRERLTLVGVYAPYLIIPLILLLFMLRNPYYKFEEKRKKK
Description: Displacement of [3H]-di-o-tolylguanidine from sigma2 receptor in rat liver membranes incubated for 120 mins in the presence of sigma1 receptor ligand (+)-pentazocine by scintillation counting method. The series is classed as cell membranes.

Series [17] addresses 5-hydroxytryptamine receptor 2B (Homo sapiens) (UniProt P41595). Nature of the series: Binding affinity to 5-HT2BR (unknown origin) at 1 uM relative to control.
The target of series [18] is T4, Alpha-2A adrenergic receptor (Homo sapiens) (UniProt P08913).
T4 sequence (whole entry): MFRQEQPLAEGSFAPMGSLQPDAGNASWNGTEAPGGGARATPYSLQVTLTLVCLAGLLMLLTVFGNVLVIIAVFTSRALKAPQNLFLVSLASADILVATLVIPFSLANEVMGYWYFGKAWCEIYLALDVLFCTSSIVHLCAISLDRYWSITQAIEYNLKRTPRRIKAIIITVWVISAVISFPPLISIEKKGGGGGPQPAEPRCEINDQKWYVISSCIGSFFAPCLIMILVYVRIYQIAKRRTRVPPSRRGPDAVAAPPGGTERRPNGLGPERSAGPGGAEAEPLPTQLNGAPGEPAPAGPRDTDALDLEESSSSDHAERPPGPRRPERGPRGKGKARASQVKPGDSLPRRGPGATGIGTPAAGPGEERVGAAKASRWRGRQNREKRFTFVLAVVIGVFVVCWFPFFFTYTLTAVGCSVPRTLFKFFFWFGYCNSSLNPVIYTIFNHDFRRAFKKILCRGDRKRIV
Description: Binding affinity to alpha 2a adrenergic receptor (unknown origin) at 1 uM relative to control.

In series [19] the target is Cytochrome P450 2C9 (Homo sapiens, UniProt P11712). Description: Inhibition of recombinant human CYP2C9 at 1 uM by fluorescence assay. Format: ADME. As to conditions: recombinant enzyme.
Sequence of Cytochrome P450 2C9 (P11712 whole entry): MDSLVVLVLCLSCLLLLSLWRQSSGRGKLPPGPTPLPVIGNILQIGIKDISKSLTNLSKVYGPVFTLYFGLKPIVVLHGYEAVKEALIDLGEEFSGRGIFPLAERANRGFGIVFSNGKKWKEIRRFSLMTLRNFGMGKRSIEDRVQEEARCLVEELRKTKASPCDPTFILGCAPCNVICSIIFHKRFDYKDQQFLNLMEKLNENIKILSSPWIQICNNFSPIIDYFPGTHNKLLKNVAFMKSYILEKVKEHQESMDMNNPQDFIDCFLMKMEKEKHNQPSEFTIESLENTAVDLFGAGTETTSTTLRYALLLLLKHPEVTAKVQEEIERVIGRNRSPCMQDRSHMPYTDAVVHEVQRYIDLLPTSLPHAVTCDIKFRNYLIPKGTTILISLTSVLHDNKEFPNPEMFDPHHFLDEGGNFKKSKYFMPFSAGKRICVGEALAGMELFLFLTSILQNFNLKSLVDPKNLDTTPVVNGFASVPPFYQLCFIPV
Series [20] relates to HepG2. Description: Cytotoxicity against human HepG2 cells at 1 to 100 uM incubated for 20 hrs under serum free condition by neutral red uptake assay. Format: cell-based. As to conditions: hepg2, 20 h.
Series [21] addresses Cytochrome P450 3A4 (Homo sapiens, UniProt P08684). Nature of the series: Inhibition of recombinant human CYP3A4 at 1 uM by fluorescence assay. The series is classed as ADME. As to conditions: recombinant enzyme.
The target in series [22] is T5, 5-hydroxytryptamine receptor 1A (Homo sapiens) (UniProt P08908).
T5 sequence (whole entry): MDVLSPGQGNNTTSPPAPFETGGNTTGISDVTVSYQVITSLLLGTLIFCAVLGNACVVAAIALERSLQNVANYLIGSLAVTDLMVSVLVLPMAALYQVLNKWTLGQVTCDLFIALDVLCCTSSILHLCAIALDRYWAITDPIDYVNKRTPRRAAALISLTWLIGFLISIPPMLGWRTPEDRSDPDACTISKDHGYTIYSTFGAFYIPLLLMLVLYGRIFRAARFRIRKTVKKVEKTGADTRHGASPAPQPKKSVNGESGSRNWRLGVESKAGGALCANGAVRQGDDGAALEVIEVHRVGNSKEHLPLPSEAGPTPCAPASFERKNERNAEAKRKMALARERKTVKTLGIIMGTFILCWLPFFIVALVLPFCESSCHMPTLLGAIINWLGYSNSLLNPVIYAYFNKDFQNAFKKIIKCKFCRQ
Description: Binding affinity to 5-HT1AR (unknown origin) at 1 uM relative to control.

In series [23] the target is Sodium-dependent dopamine transporter (Homo sapiens) (UniProt Q01959). Description: Binding affinity to dopamine transporter (unknown origin) at 1 uM.
Sequence of Sodium-dependent dopamine transporter (Homo sapiens) (Q01959 whole entry): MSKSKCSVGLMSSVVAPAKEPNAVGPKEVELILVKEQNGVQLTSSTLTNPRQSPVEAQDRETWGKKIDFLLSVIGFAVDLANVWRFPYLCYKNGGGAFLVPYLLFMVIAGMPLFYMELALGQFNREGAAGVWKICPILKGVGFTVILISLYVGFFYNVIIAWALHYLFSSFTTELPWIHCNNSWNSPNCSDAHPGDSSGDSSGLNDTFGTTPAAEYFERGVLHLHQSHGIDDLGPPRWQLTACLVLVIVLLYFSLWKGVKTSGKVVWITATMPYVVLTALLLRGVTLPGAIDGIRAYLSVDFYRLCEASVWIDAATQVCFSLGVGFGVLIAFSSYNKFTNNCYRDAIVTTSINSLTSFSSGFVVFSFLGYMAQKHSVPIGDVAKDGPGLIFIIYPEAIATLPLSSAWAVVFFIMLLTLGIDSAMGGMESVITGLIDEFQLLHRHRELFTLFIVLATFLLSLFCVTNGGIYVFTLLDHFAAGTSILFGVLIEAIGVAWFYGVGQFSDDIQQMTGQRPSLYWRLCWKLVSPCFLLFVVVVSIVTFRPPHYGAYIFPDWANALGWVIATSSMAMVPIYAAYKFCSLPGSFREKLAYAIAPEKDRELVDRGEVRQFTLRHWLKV

Sequence of Mu-type opioid receptor (Homo sapiens, UniProt P35372) (P35372 whole entry): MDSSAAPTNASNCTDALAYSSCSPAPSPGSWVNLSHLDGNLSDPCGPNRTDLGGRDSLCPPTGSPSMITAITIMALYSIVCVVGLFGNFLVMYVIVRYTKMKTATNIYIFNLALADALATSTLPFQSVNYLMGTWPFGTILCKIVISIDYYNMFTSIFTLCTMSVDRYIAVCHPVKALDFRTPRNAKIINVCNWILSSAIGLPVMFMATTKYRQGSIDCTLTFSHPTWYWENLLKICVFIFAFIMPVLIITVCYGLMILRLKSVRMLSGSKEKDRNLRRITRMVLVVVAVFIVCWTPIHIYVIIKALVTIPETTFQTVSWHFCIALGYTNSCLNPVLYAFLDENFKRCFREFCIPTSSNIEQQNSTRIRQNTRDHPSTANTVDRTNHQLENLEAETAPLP
Sequence of Cytochrome P450 3A4 (P08684 whole entry): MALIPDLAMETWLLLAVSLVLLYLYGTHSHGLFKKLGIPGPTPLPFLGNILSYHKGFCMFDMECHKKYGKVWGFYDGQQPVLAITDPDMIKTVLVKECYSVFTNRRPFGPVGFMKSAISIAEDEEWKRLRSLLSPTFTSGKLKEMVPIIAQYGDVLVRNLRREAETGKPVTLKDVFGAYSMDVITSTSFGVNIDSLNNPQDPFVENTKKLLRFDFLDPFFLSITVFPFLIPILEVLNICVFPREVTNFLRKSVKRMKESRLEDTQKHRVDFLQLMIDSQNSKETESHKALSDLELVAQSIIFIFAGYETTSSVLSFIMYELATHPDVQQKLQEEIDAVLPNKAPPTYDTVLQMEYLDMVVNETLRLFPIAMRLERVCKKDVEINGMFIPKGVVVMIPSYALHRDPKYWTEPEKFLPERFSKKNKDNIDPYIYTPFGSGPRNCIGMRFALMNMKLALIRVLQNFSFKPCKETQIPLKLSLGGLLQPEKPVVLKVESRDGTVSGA
Sequence of Sigma non-opioid intracellular receptor 1 (Q99720 whole entry): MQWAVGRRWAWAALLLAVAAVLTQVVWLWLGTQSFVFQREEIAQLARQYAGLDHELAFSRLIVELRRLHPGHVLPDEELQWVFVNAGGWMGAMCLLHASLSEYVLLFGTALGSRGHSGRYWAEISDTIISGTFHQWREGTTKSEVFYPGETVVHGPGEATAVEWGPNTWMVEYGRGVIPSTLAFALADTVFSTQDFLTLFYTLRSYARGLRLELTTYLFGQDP

As for `COC1Cc2ccccc2[C@]2(CC[C@@H](N(C)Cc3ccccc3)CC2)O1` (stereo partly drawn), the Ki (in general, the equilibrium dissociation constant of an inhibitor or competing ligand from its target) in [1] was determined as 371 nM; in series [6] it was 250 nM; in [9], 41 nM; in series [10], 18 nM; in series [12], 40 nM; in [16] it was 1440 nM. The Ratio Ki in [2] is 5 to 10. Moreover, the “inhibition (INH)” value in series [3], in series [15], in series [19] and in series [21] was “Not Active” in each case. In addition, the Activity entry in series [4] and in series [20] was “Non-Toxic” each time. Further, the outcome in series [5], in series [11], in series [13], in [14], in series [17] and in series [18] was inactive. Moreover, the outcome in series [22] and in series [23] was inactive. The inhibition – broadly, how much of the control response was suppressed – at 1 µM in [7] is greater than 90%. Further, the remaining at 1 h, 1 µM in [8] was greater than 50%.
